Results as given in PubChem BioAssay AID248 (DTP/NCI, 2004).
Where “and” joins values, the source holds several entries; their conditions need not be identical. Identical values can stand only once. Toxic doses and inconclusive results are not listed. Rule as the data show it: active = T/C of 150% or more; inactive = T/C below 125%.

System: L1210 leukemia ip in BDF1 mice, survival T/C
Test: NCI In Vivo Anticancer Drug Screen. Data for tumor model L1210 Leukemia (intraperitoneal) in B6D2F1 (BDF1) mice
Details: endpoint: mean survival time, higher = longer survival
How it was run: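 Mice bearing the transplanted tumor received compound or vehicle. Survival of the treated group was divided by that of the vehicle-treated control group to give the ratio.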

[1] = dose: 100.0 mg/kg/injection, schedule: Q01DX001 (ip), vehicle: saline
[2] = dose: 200.0 mg/kg/injection, schedule: Q01DX001 (ip), vehicle: saline
[3] = dose: 400.0 mg/kg/injection, schedule: Q01DX001 (ip), vehicle: saline
[4] = dose: 100.0 mg/kg/injection, schedule: Q01DX009 (ip), vehicle: Klucel (hydroxypropylcellulose) (HPC)
[5] = dose: 100.0 mg/kg/injection, schedule: Q04DX003 (ip), vehicle: Klucel (hydroxypropylcellulose) (HPC)
[6] = dose: 200.0 mg/kg/injection, schedule: Q01DX009 (ip), vehicle: Klucel (hydroxypropylcellulose) (HPC)
[7] = dose: 200.0 mg/kg/injection, schedule: Q04DX003 (ip), vehicle: Klucel (hydroxypropylcellulose) (HPC)
[8] = dose: 400.0 mg/kg/injection, schedule: Q01DX009 (ip), vehicle: Klucel (hydroxypropylcellulose) (HPC)
[9] = dose: 100.0 mg/kg/injection, schedule: Q04DX002 (ip), vehicle: Klucel (hydroxypropylcellulose) (HPC)
[10] = dose: 200.0 mg/kg/injection, schedule: Q04DX002 (ip), vehicle: Klucel (hydroxypropylcellulose) (HPC)
[11] = dose: 100.0 mg/kg/injection, schedule: Q04DX002 (ip), vehicle: saline
[12] = dose: 200.0 mg/kg/injection, schedule: Q04DX002 (ip), vehicle: saline
[13] = dose: 400.0 mg/kg/injection, schedule: Q04DX002 (ip), vehicle: saline
[14] = dose: 75.0 mg/kg/injection, schedule: Q01DX001 (ip), vehicle: saline
[15] = dose: 50.0 mg/kg/injection, schedule: Q04DX003 (ip), vehicle: Klucel (hydroxypropylcellulose) (HPC)
[16] = dose: 400.0 mg/kg/injection, schedule: Q04DX002 (ip), vehicle: Klucel (hydroxypropylcellulose) (HPC)

Measured: T/C

C(=N/N=C(N/N=C/c1ccccc1)N/N=C/c1ccccc1)/c1ccccc1
inactive: dose: 15.0 mg/kg/injection, schedule: Q01DX Z (ip), vehicle: carboxymethylcellulose (CMC) 95 % of control | dose: 30.0 mg/kg/injection, schedule: Q01DX Z (ip), vehicle: carboxymethylcellulose (CMC) 95 % of control | dose: 60.0 mg/kg/injection, schedule: Q01DX Z (ip), vehicle: carboxymethylcellulose (CMC) 92 % of control | dose: 120.0 mg/kg/injection, schedule: Q01DX Z (ip), vehicle: carboxymethylcellulose (CMC) 92 % of control | dose: 188.0 mg/kg/injection, schedule: Q01DX Z (oral), vehicle: carboxymethylcellulose (CMC) 95 % of control | dose: 375.0 mg/kg/injection, schedule: Q01DX Z (oral), vehicle: carboxymethylcellulose (CMC) 105 % of control | dose: 750.0 mg/kg/injection, schedule: Q01DX Z (oral), vehicle: carboxymethylcellulose (CMC) 110 % of control | dose: 1500.0 mg/kg/injection, schedule: Q01DX Z (oral), vehicle: carboxymethylcellulose (CMC) 100 % of control

Cc1ccc(NC(=O)NCCCO)cc1
inactive: dose: 50.0 mg/kg/injection, schedule: Q01DX001 (ip), vehicle: carboxymethylcellulose (CMC) 101 % of control | dose: 100.0 mg/kg/injection, schedule: Q01DX001 (ip), vehicle: carboxymethylcellulose (CMC) 101 % of control | dose: 200.0 mg/kg/injection, schedule: Q01DX001 (ip), vehicle: carboxymethylcellulose (CMC) 106 % of control | dose: 400.0 mg/kg/injection, schedule: Q01DX001 (ip), vehicle: carboxymethylcellulose (CMC) 104 % of control

CCCCCCCCCCCCC1c2ccccc2-c2ccccc21
inactive: [1] 95 % of control | [2] 98 % of control | [3] 107 % of control

CC(=O)c1ccc(OS(=O)(=O)c2ccc([N+](=O)[O-])cc2)cc1
inactive: [4] 90 % of control | [5] 94 % of control | [6] 90 % of control | [7] 94 % of control | [8] 86 % of control | dose: 400.0 mg/kg/injection, schedule: Q04DX003 (ip), vehicle: Klucel (hydroxypropylcellulose) (HPC) 89 % of control

Cc1ccc(C(=O)N2C(=O)Cc3ccccc32)cc1
inactive: dose: 50.0 mg/kg/injection, schedule: Q04DX002 (ip), vehicle: Klucel (hydroxypropylcellulose) (HPC) 90 % of control | [9] 94 % of control | [10] 94 % of control

CC1(C)OC(C(O)CO)C(C2COC(=S)O2)O1 (stereo not given)
inactive: [11] 107 % of control | [12] 104 % of control | [13] 100 % of control

COc1ccc(NC(=O)Nc2cccc(O)c2)c(OC)c1
inactive: [4] 100 % of control | [6] 96 % of control | [8] 100 % of control

Cc1cc(O)c2c(c1O)C(=O)c1ccccc1C2=O
inactive: dose: 50.0 mg/kg/injection, schedule: Q01DX009 (ip), vehicle: saline 95 % of control | dose: 100.0 mg/kg/injection, schedule: Q01DX009 (ip), vehicle: saline 95 % of control | dose: 100.0 mg/kg/injection, schedule: Q04DX003 (ip), vehicle: saline 98 % of control | dose: 200.0 mg/kg/injection, schedule: Q01DX009 (ip), vehicle: saline 95 % of control | dose: 200.0 mg/kg/injection, schedule: Q04DX003 (ip), vehicle: saline 96 % of control | dose: 400.0 mg/kg/injection, schedule: Q01DX009 (ip), vehicle: saline 104 % of control | dose: 400.0 mg/kg/injection, schedule: Q04DX003 (ip), vehicle: saline 93 % of control

CCOC(=O)c1ccc(N(CCOS(C)(=O)=O)CCOS(C)(=O)=O)cc1
inactive: dose: 7.1 mg/kg/injection, schedule: Q01DX015 (ip), vehicle: saline 98 % of control | dose: 10.0 mg/kg/injection, schedule: Q01DX015 (ip), vehicle: saline 102 % of control | dose: 16.0 mg/kg/injection, schedule: Q01DX015 (ip), vehicle: saline 108 % of control | dose: 25.0 mg/kg/injection, schedule: Q01DX015 (ip), vehicle: saline 113 % of control | [14] 109 % of control | dose: 100.0 mg/kg/injection, schedule: Q01DX015 (ip), vehicle: saline 87 % of control | dose: 300.0 mg/kg/injection, schedule: Q01DX001 (ip), vehicle: saline 120 % of control | dose: 600.0 mg/kg/injection, schedule: Q01DX001 (ip), vehicle: saline 122 % of control | dose: 1000.0 mg/kg/injection, schedule: Q01DX001 (ip), vehicle: saline 116 % of control

O=C1C(n2ccc(=O)[nH]c2=O)CCN1CCOCc1ccccc1 (stereo not given)
inactive: [4] 105 % of control | [6] 105 % of control | [8] 100 % of control

CC[n+]1c(C)sc2cc3c(cc21)OCO3
inactive: dose: 25.0 mg/kg/injection, schedule: Q04DX003 (ip), vehicle: Klucel (hydroxypropylcellulose) (HPC) 102 % of control | dose: 50.0 mg/kg/injection, schedule: Q01DX009 (ip), vehicle: Klucel (hydroxypropylcellulose) (HPC) 103 % of control | [15] 107 % of control | [4] 96 % of control | [5] 105 % of control and 109 % of control

O=c1c(-c2ccccc2)c(-c2ccccc2)c1=O
inactive: [14] 91 % of control | dose: 150.0 mg/kg/injection, schedule: Q01DX001 (ip), vehicle: saline 96 % of control

Nc1cc(Cl)c(S(=O)(=O)O)cc1Cl
inactive: dose: 50.0 mg/kg/injection, schedule: Q01DX009 (ip), vehicle: saline with Tween-80 90 % of control | [1] 95 % of control | dose: 100.0 mg/kg/injection, schedule: Q01DX009 (ip), vehicle: saline with Tween-80 107 % of control | [9] 100 % of control | [2] 86 % of control | dose: 200.0 mg/kg/injection, schedule: Q01DX009 (ip), vehicle: saline with Tween-80 97 % of control | [10] 91 % of control | [16] 88 % of control

Cc1ccc(C(=O)Nc2ccc3c(c2)Cc2ccccc2-3)cc1
inactive: dose: 50.0 mg/kg/injection, schedule: Q01DX001 (ip), vehicle: saline 101 % of control | [15] 104 % of control | [1] 101 % of control | [5] 100 % of control | [2] 101 % of control | [7] 94 % of control | [3] 95 % of control

COc1ccc(CC(=O)c2ccccc2)cc1
inactive: [11] 92 % of control | [12] 95 % of control | [13] 104 % of control

COc1ccc(NC(=O)c2ccco2)cc1
inactive: [9] 123 % of control | [10] 112 % of control | [16] 123 % of control

Nc1cccn2cnnc12
inactive: [1] 103 % of control | [2] 101 % of control | [3] 97 % of control
